Test results from patent US20250161216A1, “CATIONIC LIPID ANALOGUES, COMPOSITIONS AND USES THEREOF” (GUANGZHOU LIDE BIOMEDICINE TECHNOLOGY CO., LTD., priority 2022, published 2025).

Legend:
C57BL/6 mice [1] = assay: In vivo expression level of Luciferase-mRNA delivered by intramuscular injection (bioluminescence imaging); details: mRNA-loaded nanoparticles, intramuscular (leg muscle), 5 μg Luciferase-mRNA, 6 hours
Experimental: Luciferase-mRNA was used as an mRNA model; and the cationic lipid analogues of Examples 1-5 were used to prepare drug-loaded nanoparticles according to the method of Example 6.
100 μL of nanoparticles containing 5 μg Luciferase-mRNA or the drug-loaded nanoparticles prepared above were injected into the leg muscles of 6-8 week-old C57BL/6 mice, and 200 μL of 1×PBS solution containing 3 mg D-Luciferin potassium salt was intraperitoneally injected into the mice 6 hours later. After waiting for 10 minutes, an in vivo expression level of the mRNA was evaluated by bioluminescence imaging.

C57BL/6 mice [2] = assay: In vivo expression level of Luciferase-mRNA delivered by intravenous injection (bioluminescence imaging); details: mRNA-loaded nanoparticles, intravenous (tail vein), 5 μg Luciferase-mRNA, 6 hours
Procedure, shortened: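 Lipid nanoparticles carrying 5 μg Luciferase-mRNA given by tail-vein injection to 6-8-week-old C57BL/6 mice. At 6 h, 3 mg D-luciferin i.p. in PBS; bioluminescence imaged 10 min later as the expression read-out.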

Row | Compound | Local fluorescence intensity (C57BL/6 mice [1]; compounds of Example 2) | Fluorescence intensity of spleen (C57BL/6 mice [2]; compounds of Example 2) | Local fluorescence intensity (C57BL/6 mice [1]; compounds of Example 3) | Fluorescence intensity of spleen (C57BL/6 mice [2]; compounds of Example 3)
1 | CCCCCCCC/C=C\CCCCCCCC(=O)N(CCC)C(C(=O)NCCN(C)CCNC(=O)C(C(C)C)N(CCC)C(=O)CCCCCCC/C=C\CCCCCCCC)C(C)C (stereo not shown) [A1I4R21C18-1] | 2.26E+07 | 2.76E+05 | – | –
2 | CCCCC/C=C\C/C=C\CCCCCCCC(=O)N(CCC)C(C(=O)NCCN(C)CCNC(=O)C(C(C)C)N(CCC)C(=O)CCCCCCC/C=C\C/C=C\CCCCC)C(C)C (stereo not shown) [A1I4R21C18-2] | 3.17E+05 | 6.62E+05 | – | –
3 | CCCCCCCC/C=C\CCCCCCCC(=O)N(CCO)C(C(=O)NCCN(C)CCNC(=O)C(C(C)C)N(CCO)C(=O)CCCCCCC/C=C\CCCCCCCC)C(C)C (stereo not shown) [A1I4R22C18-1] | 2.86E+04 | 3.18E+05 | – | –
4 | CCCCCCCC/C=C\CCCCCCCC(=O)N(CCOC)C(C(=O)NCCN(C)CCNC(=O)C(C(C)C)N(CCOC)C(=O)CCCCCCC/C=C\CCCCCCCC)C(C)C (stereo not shown) [A1I4R23C18-1] | 1.77E+05 | 3.11E+05 | – | –
5 | CCCCC/C=C\C/C=C\CCCCCCCC(=O)N(CCOC)C(C(=O)NCCN(C)CCNC(=O)C(C(C)C)N(CCOC)C(=O)CCCCCCC/C=C\C/C=C\CCCCC)C(C)C (stereo not shown) [A1I4R23C18-2] | 8.72E+05 | 9.64E+05 | – | –
6 | CCCCCCCCCCCCCCCCCC(=O)N(CCOC)C(C(=O)NCCN(C)CCNC(=O)C(C(C)C)N(CCOC)C(=O)CCCCCCCCCCCCCCCCC)C(C)C (stereo not shown) [A1I4R23C18] | 7.53E+04 | 1.51E+05 | – | –
7 | CCCCC/C=C\C/C=C\CCCCCCCC(=O)N(CCCCCCO)C(C(=O)NCCN(C)CCNC(=O)C(C(C)C)N(CCCCCCO)C(=O)CCCCCCC/C=C\C/C=C\CCCCC)C(C)C (stereo not shown) [A1I4R28C18-2] | 1.72E+06 | – | – | –
8 | CCCC/C=C\C/C=C\CCCCCCCC(=O)N(C(C(=O)NCCN(C)CCNC(=O)C(C(C)C)N(C(=O)CCCCCCC/C=C\C/C=C\CCCCC)C(C)(CO)CO)C(C)C)C(C)(CO)CO (stereo not shown) [A1I4R29C18-2] | 2.99E+04 | – | – | –
9 | CCCCC/C=C\C/C=C\CCCCCCCC(=O)N(C(C(=O)NCCN(C)CCNC(=O)C(C(C)C)N(C(=O)CCCCCCC/C=C\C/C=C\CCCCC)C(CO)(CO)CO)C(C)C)C(O)(CO)CO (stereo not shown) [A1I4R30C18-2] | 2.05E+04 | – | – | –
10 | CCCCC/C=C\C/C=C\CCCCCCCC(=O)N(CCCOCC)C(C(=O)NCCN(C)CCNC(=O)C(C(C)C)N(CCCOCC)C(=O)CCCCCCC/C=C\C/C=C\CCCCC)C(C)C (stereo not shown) [A1I4R31C18-2] | 5.21E+04 | – | – | –
11 | CCCCC/C=C\C/C=C\CCCCCCCC(=O)N(CCCOC(C)C)C(C(=O)NCCN(C)CCNC(=O)C(C(C)C)N(CCCOC(C)C)C(=O)CCCCCCC/C=C\C/C=C\CCCCC)C(C)C (stereo not shown) [A1I4R32C18-2] | 2.57E+04 | – | – | –
12 | CCCC/C=C\C/C=C\CCCCCCCC(=O)N(C(CC)COC)C(C(=O)NCCN(C)CCNC(=O)C(C(C)C)N(C(=O)CCCCCCC/C=C\C/C=C\CCCCC)C(CC)COC)C(C)C (stereo not shown) [A1I4R33C18-2] | 1.02E+05 | – | – | –
13 | CCCC/C=C\C/C=C\CCCCCCCC(=O)N(CC(OC)OC)C(C(=O)NCCN(C)CCNC(=O)C(C(C)C)N(CC(OC)OC)C(=O)CCCCCCC/C=C\C/C=C\CCCCC)C(C)C (stereo not shown) [A1I4R34C18-2] | 5.58E+05 | – | – | –
14 | CCCC/C=C\C/C=C\CCCCCCCC(=O)N(CC1CCCO1)C(C(=O)NCCN(C)CCNC(=O)C(C(C)C)N(CC1CCCO1)C(=O)CCCCCCC/C=C\C/C=C\CCCCC)C(C)C (stereo not shown) [A1I4R35C18-2] | 3.38E+05 | – | – | –
15 | CCCC/C=C\C/C=C\CCCCCCCC(=O)N(CCOCCO)C(C(=O)NCCN(C)CCNC(=O)C(C(C)C)N(CCOCCO)C(=O)CCCCCCC/C=C\C/C=C\CCCCC)C(C)C (stereo not shown) [A1I4R36C18-2] | 5.68E+04 | – | – | –
16 | CCCC/C=C\C/C=C\CCCCCCCC(=O)N(CCCO)C(C(=O)NCCN(C)CCNC(=O)C(C(C)C)N(CCCO)C(=O)CCCCCCC/C=C\C/C=C\CCCCC)C(C)C (stereo not shown) [A1I4R42C18-2] | 7.04E+04 | – | – | –

Row | Compound | Local fluorescence intensity (C57BL/6 mice [1]; compounds of Example 2) | Fluorescence intensity of spleen (C57BL/6 mice [2]; compounds of Example 2) | Local fluorescence intensity (C57BL/6 mice [1]; compounds of Example 3) | Fluorescence intensity of spleen (C57BL/6 mice [2]; compounds of Example 3)
17 | CCCC/C=C\C/C=C\CCCCCCCC(=O)N(CCCOC)C(C(=O)NCCN(C)CCNC(=O)C(C(C)C)N(CCCOC)C(=O)CCCCCCC/C=C\C/C=C\CCCCC)C(C)C (stereo not shown) [A1I4R43C18-2] | 6.57E+04 | – | – | –
18 | CCCCC/C=C\C/C=C\CCCCCCCC(=O)N(CC1CCOCC1)C(C(=O)NCCN(C)CCNC(=O)C(C(C)C)N(CC1CCOCC1)C(=O)CCCCCCC/C=C\C/C=C\CCCCC)C(C)C (stereo not shown) [A1I4R48C18-2] | 8.55E+04 | – | – | –
19 | CCCCCCCCCCCCCC(=O)N(CCO)C(C(=O)NCCN(CCNC(=O)C(C(C)C)N(CCO)C(=O)CCCCCCCCCCCCC)CCNC(=O)C(C(C)C)N(CCO)C(=O)CCCCCCCCCCCCC)C(C)C (stereo not shown) [A1I5R22C14] | – | – | 1.08E+05 | 1.20E+06
20 | CCCCCCCCSSCCC(=O)N(CCO)C(C(=O)NCCN(CCNC(=O)C(C(C)C)N(CCO)C(=O)CCSSCCCCCCCC)CCNC(=O)C(C(C)C)N(CCO)C(=O)CCSSCCCCCCCC)C(C)C (stereo not shown) [A1I5R22S13] | – | – | 5.74E+05 | 1.60E+06
21 | CCCCCCCCCCSSCCC(=O)N(C1CCCCCC1)C(C(=O)NCCN(CCNC(=O)C(C(C)C)N(C(=O)CCSSCCCCCCCCCC)C1CCCCCC1)CCNC(=O)C(C(C)C)N(C(=O)CCSSCCCCCCCCCC)C1CCCCCC1)C(C)C (stereo not shown) [A1I5R26S15] | – | – | 9.90E+05 | 1.30E+05
22 | CCCCCCCCCCSSCCC(=O)N(CCCCCO)C(C(=O)NCCN(CCNC(=O)C(C(C)C)N(CCCCCO)C(=O)CCSSCCCCCCCCCC)CCNC(=O)C(C(C)C)N(CCCCCO)C(=O)CCSSCCCCCCCCCC)C(C)C (stereo not shown) [A1I5R27S15] | – | – | 3.57E+05 | 7.96E+05
23 | CCCCCCCCCCSSCCC(=O)N(CCCCCCO)C(C(=O)NCCN(CCNC(=O)C(C(C)C)N(CCCCCCO)C(=O)CCSSCCCCCCCCCC)CCNC(=O)C(C(C)C)N(CCCCCCO)C(=O)CCSSCCCCCCCCCC)C(C)C (stereo not shown) [A1I5R28S15] | – | – | 6.01E+05 | 3.31E+06
24 | CCCCCCCCCCSSCCC(=O)N(C(C(=O)NCCN(CCNC(=O)C(C(C)C)N(C(=O)CCSSCCCCCCCCCC)C(C)(CO)CO)CCNC(=O)C(C(C)C)N(C(=O)CCSSCCCCCCCCCC)C(C)(CO)CO)C(C)C)C(C)(CO)CO (stereo not shown) [A1I5R29S15] | – | – | 7.63E+04 | 3.13E+05
25 | CCCCCCCCCCSSCCC(=O)N(C(C(=O)NCCN(CCNC(=O)C(C(C)C)N(C(=O)CCSSCCCCCCCCCC)C(CO)(CO)CO)CCNC(=O)C(C(C)C)N(C(=O)CCSSCCCCCCCCCC)C(CO)(CO)CO)C(C)C)C(CO)(CO)CO (stereo not shown) [A1I5R30S15] | – | – | 7.77E+04 | 6.31E+04
26 | CCCCCCCCCCSSCCC(=O)N(CCCOCC)C(C(=O)NCCN(CCNC(=O)C(C(C)C)N(CCCOCC)C(=O)CCSSCCCCCCCCCC)CCNC(=O)C(C(C)C)N(CCCOCC)C(=O)CCSSCCCCCCCCCC)C(C)C (stereo not shown) [A1I5R31S15] | – | – | 2.94E+06 | 6.13E+05
27 | CCCCCCCCCCSSCCC(=O)N(CCCOC(C)C)C(C(=O)NCCN(CCNC(=O)C(C(C)C)N(CCCOC(C)C)C(=O)CCSSCCCCCCCCCC)CCNC(=O)C(C(C)C)N(CCCOC(C)C)C(=O)CCSSCCCCCCCCCC)C(C)C (stereo not shown) [A1I5R32S15] | – | – | 1.18E+06 | 2.48E+05
28 | CCCCCCCCCCSSCCC(=O)N(C(CC)COC)C(C(=O)NCCN(CCNC(=O)C(C(C)C)N(C(=O)CCSSCCCCCCCCCC)C(CC)COC)CCNC(=O)C(C(C)C)N(C(=O)CCSSCCCCCCCCCC)C(CC)COC)C(C)C (stereo not shown) [A1I5R33S15] | – | – | 1.52E+06 | 2.33E+05
29 | CCCCCCCCCCSSCCC(=O)N(CC(OC)OC)C(C(=O)NCCN(CCNC(=O)C(C(C)C)N(CC(OC)OC)C(=O)CCSSCCCCCCCCCC)CCNC(=O)C(C(C)C)N(CC(OC)OC)C(=O)CCSSCCCCCCCCCC)C(C)C (stereo not shown) [A1I5R34S15] | – | – | 1.24E+06 | 2.84E+05
30 | CCCCCCCCCCSSCCC(=O)N(CC1CCCO1)C(C(=O)NCCN(CCNC(=O)C(C(C)C)N(CC1CCCO1)C(=O)CCSSCCCCCCCCCC)CCNC(=O)C(C(C)C)N(CC1CCCO1)C(=O)CCSSCCCCCCCCCC)C(C)C (stereo not shown) [A1I5R35S15] | – | – | 2.62E+06 | 3.21E+05
31 | CCCCCCCCCCSSCCC(=O)N(CCOCCO)C(C(=O)NCCN(CCNC(=O)C(C(C)C)N(CCOCCO)C(=O)CCSSCCCCCCCCCC)CCNC(=O)C(C(C)C)N(CCOCCO)C(=O)CCSSCCCCCCCCCC)C(C)C (stereo not shown) [A1I5R36S15] | – | – | 8.27E+04 | 3.27E+06
32 | CCCCCCCCCCSSCCC(=O)N(CC(=O)OCC)C(C(=O)NCCN(CCNC(=O)C(C(C)C)N(CC(=O)OCC)C(=O)CCSSCCCCCCCCCC)CCNC(=O)C(C(C)C)N(CC(=O)OCC)C(=O)CCSSCCCCCCCCCC)C(C)C (stereo not shown) [A1I5R37S15] | – | – | 1.26E+06 | 1.61E+05
